Measurements from ChEMBL document CHEMBL5365515, “PARP7 Inhibition: A Promising Pathway to Advancements in Cancer Therapy” (ACS Med Chem Lett, 2023).
Each block holds one compound with its values, some of them ahead of it.

Molecular target: T1, Protein mono-ADP-ribosyltransferase TIPARP (Homo sapiens, UniProt Q7Z3E1)
T1 sequence (Q7Z3E1 whole entry): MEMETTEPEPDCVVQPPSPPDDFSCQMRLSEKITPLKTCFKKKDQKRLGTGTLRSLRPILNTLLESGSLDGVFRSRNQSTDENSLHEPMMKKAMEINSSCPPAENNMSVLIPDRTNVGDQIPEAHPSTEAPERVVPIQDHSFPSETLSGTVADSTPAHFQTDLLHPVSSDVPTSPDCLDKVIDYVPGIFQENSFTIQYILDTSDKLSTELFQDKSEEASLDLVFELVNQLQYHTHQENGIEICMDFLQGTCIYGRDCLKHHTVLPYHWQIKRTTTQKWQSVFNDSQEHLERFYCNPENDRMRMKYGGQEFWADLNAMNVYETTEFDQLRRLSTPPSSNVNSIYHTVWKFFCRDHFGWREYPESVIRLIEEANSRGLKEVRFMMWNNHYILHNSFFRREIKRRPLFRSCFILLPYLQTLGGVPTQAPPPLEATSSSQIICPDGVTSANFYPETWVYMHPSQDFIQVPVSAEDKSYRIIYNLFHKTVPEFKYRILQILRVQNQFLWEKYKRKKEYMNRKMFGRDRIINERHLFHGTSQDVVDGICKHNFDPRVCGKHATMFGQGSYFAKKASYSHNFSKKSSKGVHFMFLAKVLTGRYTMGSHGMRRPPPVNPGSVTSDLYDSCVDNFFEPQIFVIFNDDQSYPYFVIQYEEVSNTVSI
Assay: Inhibition of PARP7 in human NCI-H1373 cells assessed as increase in STAT1 phosphorylation at Tyr701 residue incubated for 48 hrs by LANCE Ultra TR-FRET assay
Type: cell-based

Structure (SMILES): O=C(CCC1Cc2ccccc2N1c1cc(C(F)(F)F)c(=O)[nH]n1)N1CCN(c2ncc(C(F)(F)F)cn2)CC1 (centres undefined)
- EC50: 179 nM

Structure (SMILES): O=C(CC[C@@H]1CCCCN1c1cc(C(F)(F)F)c(=O)[nH]n1)N1CCN(c2ncc(C(F)(F)F)cn2)CC1
- EC50: 172 nM

Structure (SMILES): O=C(CCCN(c1ccccc1)c1cc(C(F)(F)F)c(=O)[nH]n1)N1CCN(c2ncc(C(F)(F)F)cn2)CC1
- EC50: 74.1 nM

Structure (SMILES): CN(CCCC(=O)N1CCN(c2ncc(C(F)(F)F)cn2)CC1)c1cc(C(F)(F)F)c(=O)[nH]n1
- EC50: 75.6 nM

Other lines, results leading:

- EC50: 60.6 nM
Structure (SMILES): O=C(CCCCc1cc(C(F)(F)F)c(=O)[nH]n1)N1CCN(c2ncc(C(F)(F)F)cn2)CC1

- EC50: 21.3 nM
Structure (SMILES): O=C([C@@H](O)CCNc1cc(C(F)(F)F)c(=O)[nH]n1)N1CCN(c2ncc(C(F)(F)F)cn2)CC1

- EC50: 9.31 nM
Structure (SMILES): O=C(CC[C@@H]1CCCN1c1cc(C(F)(F)F)c(=O)[nH]n1)N1CCN(c2ncc(C(F)(F)F)cn2)CC1

- EC50: 51.6 nM
Structure (SMILES): CCN(CCCC(=O)N1CCN(c2ncc(C(F)(F)F)cn2)CC1)c1cc(C(F)(F)F)c(=O)[nH]n1

- EC50: 71.9 nM
Structure (SMILES): O=C(CCCNc1cc(C(F)(F)F)c(=O)[nH]n1)N1CCN(c2ncc(C(F)(F)F)cn2)CC1
